One test deals with activated human C1 (Homo sapiens, UniProt P09871). The test is described as follows: Test Code 026 (C1 inhibitor). The settings on record: serial twofold dilution assay; higher well number indicates higher activity. Type of test: biochemical. The text has this: (§1) An active inhibitor protects C2 from C1 and C4; (ii) Test Code 035 (C3-C9 inhibitor)--This test determines the ability of the late components of human complement (C3-C9) to lyse EAC 142 in the presence of approriate dilutions of the test compound. An active inhibitor protects EAC 142 from lysis by human C3-C9; (iii) Test Code 036 (C-Shunt inhibitor)--In this test human erythrocytes rendered fragile are lysed in autologous serum via the shunt pathway activated by cobra venom factor in the presence of appropriate dilutions of the test compound. Inhibition of the shunt pathway results in failure of lysis; (iv) Forssman Vasculitis Test--Here, the well known complement dependent lesion, Forssman vasculitis, is produced in guinea pigs by intradermal injection of rabbit anti-Forssman antiserum. […] Percent inhibition is calculated by comparison with simultaneous controls. […]

In test [1] the test system is late components of human complement (C3-C9). The test is described as follows: Test Code 035 (C3-C9 inhibitor), lysis of EAC 142. The note with it: serial twofold dilution assay; higher well number indicates higher activity. Type of test: biochemical.
Description: as §1

A further test concerns shunt pathway. The test can be described thus: Test Code 036 (C-Shunt inhibitor), lysis of fragile human erythrocytes in autologous serum, cobra venom factor activated. In kind it is cell-based. The settings on record: serial twofold dilution assay; higher well number indicates higher activity.
Description: as §1

Test [2] has as its system complement activity of serum. The test is described as follows: Guinea Pig Intraperitoneal Test (GPIP), serum complement activity. The note with it: Cavia porcellus, ip, 200 mg./kg. i.p. Type of test: in vivo. The text has this: An active inhibitor protects C2 from C1 and C4; (ii) Test Code 035 (C3-C9 inhibitor)--This test determines the ability of the late components of human complement (C3-C9) to lyse EAC 142 in the presence of approriate dilutions of the test compound. An active inhibitor protects EAC 142 from lysis by human C3-C9; (iii) Test Code 036 (C-Shunt inhibitor)--In this test human erythrocytes rendered fragile are lysed in autologous serum via the shunt pathway activated by cobra venom factor in the presence of appropriate dilutions of the test compound. Inhibition of the shunt pathway results in failure of lysis; (iv) Forssman Vasculitis Test--Here, the well known complement dependent lesion, Forssman vasculitis, is produced in guinea pigs by intradermal injection of rabbit anti-Forssman antiserum. The lesion is measured in terms of diameter, edema and hemorrhage and the extent to which a combined index of these is inhibited by prior intraperitoneal injection of the test compound at 200 mg./kg. is then reported, unless otherwise stated; (v) Forssman Shock Test--Lethal shock is produced in guinea pigs by an i.v. injection of anti-Forssman antiserum and the haromic mean death time of treated guinea pigs is compared with that of simultaneous controls; (vi) Complement Level Reduction Test--In this test, the above dosed guinea pigs, or others, are bled for serum and the complement level is determined in undiluted serum by the capillary tube method of U.S. Pat. No. 3,876,376 and compared to undosed control guinea pigs; (vii) Cap 50 Test--Here, appropriate amounts of the test compound are added to a pool of guinea pig serum in vitro, after which the undiluted serum capillary tube assay referred to above is run. The concentration of compound inhibiting 50% is reported; (viii) Guinea Pig Intraperitoneal Test (GPIP)--Guinea Pigs weighing about 300 g. are dosed intraperitoneally (i.p.) with 200 mg./kg. of the test compound dissolved in saline and adjusted to pH 7-8. […] Percent inhibition is calculated by comparison with simultaneous controls. […]

Read-outs that look alike come from different tables or passages of the source.

`O=C([O-])c1cc(NS(=O)(=O)c2cc(S(=O)(=O)Nc3cc(C(=O)[O-])c(C(=O)[O-])c(C(=O)[O-])c3)c3c(Cl)ccc(S(=O)(=O)Nc4cc(C(=O)[O-])c(C(=O)[O-])c(C(=O)[O-])c4)c3c2)cc(C(=O)[O-])c1C(=O)[O-].[Na+].[Na+].[Na+].[Na+].[Na+].[Na+].[Na+].[Na+].[Na+]` [5,5',5"-[(8-chloro-1,3,5-naphthalenetriyl)tris(sulfonylimino)]-tri-1,2,3-benzenetricarboxylic acid, nonasodium salt]: the “Cl 026 Wells” value on activated human C1 is “+7 Wells”. Besides, in test [1], the “C-Late 035 Wells” value was “+2 Wells”. Moreover, in the test on shunt pathway, the “Shunt Inhibition 036 Wells” value is recorded as “+5 Wells”. Besides, the inhibition at 200 mg/kg in test [2] (0.5 h, blood sample 30 minutes after injection, read-out: In Vivo Activity (Guinea Pig) % Inhibition Intraperitoneal, 30 minutes) was -75%; in test [2] (1 h, blood sample 60 minutes after injection, read-out: In Vivo Activity (Guinea Pig) % Inhibition Intraperitoneal, 60 minutes) it was -69%; in test [2] (2 h, blood sample 120 minutes after injection, read-out: In Vivo Activity (Guinea Pig) % Inhibition Intraperitoneal, 120 minutes), 75%.

The record behind these values is US4282375A, “Halogenated-naphthalenetriyltris(sulfonylimino)-aryl multicarboxylic acids and salts thereof” (priority 1979, dated 1981).
